Results taken from patent publication US20250215016A1, “ISOXAZOLE-HETEROCYCLIC DERIVATIVE, PHARMACEUTICAL COMPOSITION AND USE” (SHANGHAI SIMR BIOTECHNOLOGY CO., LTD, priority 2022, published 2025).

What was measured:
α5-GABAA receptor = α5-GABAA receptor (Homo sapiens (Human), UniProt P18507+P31644); assay: Whole-cell patch clamp electrophysiology, inverse regulation activity in α5β3γ2-HEK293 cells; assay type: cell-based; settings: compound 100 nM; GABA 0.05-0.06 μM (about EC7-8); clamped at −60 mV; read-out: Inverse regulation efficiency to α5-GABAA receptor
From the text: α, β and γ subunits are essential for the formation of a complete functional GABAA receptor. […] The specific subunit protein sequences are as follows: α5 subunit (protein sequence can be found in GenBank accession number: NM_000810.3); α2 subunit (protein sequence can be found in GenBank accession number: NM_000807.4); β3 subunit (protein sequence can be found in GenBank accession number: NM_000814.5); γ2 subunit (protein sequence can be found in GenBank accession number: NM_000816.3).
(§1) The above cell lines were subcultured. Amplification of α5β3γ2-HEK293 and α2β3γ2-HEK293 cells was used to test the affinity of the compounds to benzodiazepine site (BZD) of the GABAA receptor. During the passage of α5β3γ2-HEK293 cells, some of the suspended cells were spread on a glass slide pretreated with Poly-D-Lysine for electrophysiological testing.
The inverse regulation activity of the test drugs on α5-GABAA receptor was detected by an electrophysiological method. The specific method was as follows:
Compound concentration setting: the final concentration of the compounds used for compound screening was 100 nM. GABA concentration was 0.05-0.06 μM (about EC7-8). […] The extracellular fluid (ECS) ingredients for electrophysiology were as follows: 150 mM NaCl, 5 mM KCl, 2.5 mM CaCl2, 1 mM MgCl2, 10 mM HEPES and 10 mM glucose (pH 7.4); the electrode internal solution (ICS) formula for electrophysiology was as follows: 140 mM CsCl, 11 mM EGTA, 10 mM HEPES, 2 mM CaCl2, 1 mM MgCl2, 4 mM MgATP, 2 mM TEA (pH 7.3). The above reagents were all purchased from Sigma aldrich. GABA (γ-aminobutyric acid, from sigma aldrich, lot: A5385) powder was prepared into a stock solution with pure water and then diluted in ECS. The compound was first prepared into a 4 mM stock solution with DMSO, and then gradually diluted in corresponding concentrations of GABA-ECS. The solutions were all prepared fresh prior to electrophysiological testing.
Electrophysiological signal acquisition were performed by using EPC 10 amplifier and PatchMaster software (HEKA) or Axon 700 B amplifier and Clampex software (AXON). The recording electrode was made by drawing borosilicate glass (purchased from sutter), and has an electrode resistance of 4˜6 MΩ. Extracellular administration was carried out using ALA-VC-8PG (purchased from ALA, USA) system. A single independently grown cell was selected, and lysis was performed after the glass electrode and the cell forming a good seal, to form a whole cell mode. With the cellular membrane potential clamped at −60 mV, recording was carried out in the Gap-free mode. For the test, extracellular fluid was first applied extracellularly for about 20 seconds. After baseline (Iprebaseline) was stabilized, the extracellular fluid was switched to GABA-ECS. At this time, the current (Igaba) caused by GABA can be detected. At about 20-40 seconds, after the current stabilized, the extracellular fluid was switched to a mixed solution of the compound and GABA-ECS, until the current (Itreatment) caused by both the compound and GABA can be detected. Finally, the solution was switched to the extracellular fluid and the test was terminated after recording for 20-40 seconds.
The experimental results were analyzed using PatchMaster v2x90.1 or PatchMaster v2x90.3 software (EPC 10 amplifier) and Clampex10.6 software (Axon700B amplifier). The current value of each stage was calculated according to the average value of the stabilized current under the corresponding conditions. We defined the control current as Igaba−Iprebaseline, and the current after compound treatment as Itreatment−Iprebaseline. The inverse regulation activity of the compounds is expressed as a percentage and is calculated according to the following formula: Inverse regulation efficiency=[(Itreatment−Igaba)/(Igaba−Iprebaseline)]×100%.

[1] = target: human α5β3γ2 receptor (α5-GABAA receptor) (Homo sapiens (Human), UniProt P18507+P31644); assay: Radioligand (3H-flunitrazepam) competition binding assay, BZD site; settings: 3H-flunitrazepam 1 nM; HEK293 membranes expressing human α5β3γ2
From the text: α, β and γ subunits are essential for the formation of a complete functional GABAA receptor. In this example, HEK293 cell strains stably expressing human α5-GABAA receptor (comprising α5β3γ2 subunit) and α2-GABAA receptor (comprising α2β3γ2 subunit) were constructed and screened, respectively, by liposome transfection method (Felgner, P. L., et al., Proceedings of the National Academy of Sciences, 1987, 84:7413-7417). The specific subunit protein sequences are as follows: α5 subunit (protein sequence can be found in GenBank accession number: NM_000810.3); α2 subunit (protein sequence can be found in GenBank accession number: NM_000807.4); β3 subunit (protein sequence can be found in GenBank accession number: NM_000814.5); γ2 subunit (protein sequence can be found in GenBank accession number: NM_000816.3).
as §1
Flunitrazepam is a non-specific reagent that binds to the BZD site efficiently. The affinity of the compounds to the BZD sites of the human α5β3γ2 and α2β3γ2 receptors can be determined by competing the compound with ^3H-flunitrazepam (isotope ^3H-labeled flunitrazepam) for binding to these two receptors.
Membrane preparation: HEK293 cells stably expressing human α5β3γ2 receptor or α2β3γ2 receptor were collected, suspended in 50 mM Tris-HCl buffer (pH=7.4), homogenized on ice by a homogenizer for 20 seconds 10 times, and centrifuged at 4° C., 1000 g for 10 min. The supernatant was collected, and the above steps were repeated. The supernatant was centrifuged (33800 g; centrifuge purchased from Thermo, rotor model: A27-8×50) at 4° C. for 60 min, and the precipitate was resuspended in Tris buffer (50 mM Tris-HCl, 10 mM MgCl2, 0.5 mM EDTA, 10% glycerol). The precipitate was the cell membrane. Protein content was determined by BCA (Bicinchoninic Acid) method (BCA kit from Pierce (Annoron)). The cell membrane was prepared into 1 ml aliquot and stored at −80° C.
Radioligand competition binding assay: the assay was carried out in a 200 μL system (96-well plate from Agilent) with 100 μL of cell membrane. The concentration of ^3H-flunitazepam (from PerkinElmer, lot: NET567250 UC) was 1 nM and the concentration of test compound was in the range 1×10^−5-10^−6 M. Flumazenil (from Tocris; lot: 1318) was used as a control. 1 μL of 2 mM flumazenil (final concentration 10 μM) was added to the Low signal control well (Low control, LC) and 1 μL of DMSO (from Sigma aldrich, lot: 472301) was added to the High signal control well (High control, HC). The final target membrane protein concentration was 5 μg/well. All test compound sample stocks were 10 mM DMSO solutions. The working concentration of the samples is to dilute all samples with DMSO to 0.2 mM, and then perform 4-fold continuous gradient dilution for a total of 8 concentration gradients. The 96-well plate was sealed with a plate sealing membrane and then incubated on a shaker at room temperature for 1 hour. Meanwhile, GF/C filter plate was soaked with a plate soaking buffer (0.3% PEI, polyethyleneimine, purchased from Sigma aldrich, model: P314, stored at 4° C.) for at least 0.5 hours. After completion of binding incubation, the cells were collected with a cell collector onto the GF/C filter plate and washed four times with a plate washing buffer (50 mM Tris-HCl, pH 7.4, stored at 4° C.). […]

inhibition at 0.1 µM (α5-GABAA receptor) | Ki [1] | SMILES
38% | 1.2 nM | Cc1onc(-c2ccc(F)cc2)c1COc1ccc(-c2nnn3c2COCC3)cn1 [Compound 1, 3-(6-((3-(4-fluorophenyl)-5-methylisoxazol-4-yl)methoxy)pyridin-3-yl)-6,7-dihydro-4H-[1,2,3]triazolo[5,1-c][1,4]oxazine]
16% | 103 nM | Cc1onc(-c2ccc(F)cc2)c1COc1cnc(N2CCN3CCNC(=O)[C@@H]3C2)cn1 [Compound 6, (S)-8-(5-((3-(4-fluorophenyl)-5-methylisoxazol-4-yl)methoxy)pyrazin-2-yl) hexahydro-2H-pyrazino[1,2-a]pyrazin-1 (6H)-one]
45% | 0.6 nM | Cc1onc(-c2ccc(F)cc2)c1COc1ccc(-c2nnn3c2COCC3)nn1 [Compound 11, 3-(6-((3-(4-fluorophenyl)-5-methylisoxazol-4-yl)methoxy)pyridazin-3-yl)-6,7-dihydro-4H-[1,2,3]triazolo[5,1-c][1,4]oxazine]
43% | 12.5 nM | CCN1CCn2c(nnc2-c2ccc(OCc3c(-c4ccc(F)cc4)noc3C)nc2)C1=O [Compound 13, 7-ethyl-3-(6-((3-(4-fluorophenyl)-5-methylisoxazol-4-yl)methoxy)pyridin-3-yl)-6,7-dihydro-[1,2,4]triazolo[4,3-a]pyrazin-8(5H)-one]
49% | 2.5 nM | Cc1onc(-c2ccc(F)cc2)c1COc1ccc(-c2nnc3n2CCN(C)C3=O)nn1 [Compound 14, 3-(6-((3-(4-fluorophenyl)-5-methylisoxazol-4-yl)methoxy)pyridazin-3-yl)-7-methyl-6,7-dihydro-[1,2,4]triazolo[4,3-a]pyrazin-8(5H)-one]
50% | 0.54 nM | Cc1onc(-c2ccc(F)cc2)c1COc1ccc(-c2nnc3n2CCC3)nn1 [Compound 22, 4-(((6-(6,7-dihydro-5H-pyrrolo[2,1-c][1,2,4]triazol-3-yl)pyridazin-3-yl)oxy)methyl)-3-(4-fluorophenyl)-5-methylisoxazole]
50% | 22.1 nM | Cc1onc(-c2ccc(F)cc2)c1COc1ccc(-c2nnc3n2CCCO3)cn1 [Compound 25, 3-(6-((3-(4-fluorophenyl)-5-methylisoxazol-4-yl)methoxy)pyridin-3-yl)-6,7-dihydro-5H-[1,2,4]triazolo[3,4-b][1,3]oxazine]
42% | 32.9 nM | Cc1onc(-c2ccc(F)cc2)c1COc1ccc(-c2ncc3n2CCOC3)cn1 [Compound 28, 3-(6-((3-(4-fluorophenyl)-5-methylisoxazol-4-yl)methoxy)pyridin-3-yl)-5,6-dihydro-8H-imidazo[5,1-c][1,4]oxazine]
45% | 0.77 nM | Cc1onc(-c2ccc(F)cc2)c1COc1ccc(-c2nnc3n2CCS(=O)(=O)C3)nn1 [Compound 29, 3-(6-((3-(4-fluorophenyl)-5-methylisoxazol-4-yl)methoxy)pyridazin-3-yl)-5,6-dihydro-8H-[1,2,4]triazolo[3,4-c][1,4]thiazine 7,7-dioxide]
39% | 2.44 nM | Cc1onc(-c2ccc(F)cc2)c1COc1ccc(N2CCn3c(C)nnc3C2)nn1 [Compound 34, 3-(4-fluorophenyl)-5-methyl-4-(((6-(3-methyl-5,6-dihydro-[1,2,4]triazolo[4,3-a]pyrazin-7(8H)-yl)pyridazin-3-yl)oxy)methyl)isoxazole]
44% | 6.31 nM | Cc1onc(-c2ccc(F)cc2)c1COc1ccc(-c2cc3n(c(=O)n2)CC24CC(CN32)C4)cn1 [Compound 39, 3-(6-((3-(4-fluorophenyl)-5-methylisoxazol-4-yl)methoxy)pyridin-3-yl)-7,8-dihydro-1H,6H,9H-7,8a-methanopyrrolo[1′,2′:3,4]imidazo[1,2-c]pyrimidin-1-one]
